{
  "source": "ChEMBL document CHEMBL1137443",
  "about": "“Preparation of 4-aryl-2-trifluoromethylbenzonitrile derivatives as androgen receptor antagonists for topical suppression of sebum production” (Bioorg Med Chem Lett, 2007)",
  "key": {"Androgen receptor [1]": {"molecular_target": "T1, Androgen receptor (Homo sapiens, UniProt P10275)", "T1 sequence (P10275 whole entry)": "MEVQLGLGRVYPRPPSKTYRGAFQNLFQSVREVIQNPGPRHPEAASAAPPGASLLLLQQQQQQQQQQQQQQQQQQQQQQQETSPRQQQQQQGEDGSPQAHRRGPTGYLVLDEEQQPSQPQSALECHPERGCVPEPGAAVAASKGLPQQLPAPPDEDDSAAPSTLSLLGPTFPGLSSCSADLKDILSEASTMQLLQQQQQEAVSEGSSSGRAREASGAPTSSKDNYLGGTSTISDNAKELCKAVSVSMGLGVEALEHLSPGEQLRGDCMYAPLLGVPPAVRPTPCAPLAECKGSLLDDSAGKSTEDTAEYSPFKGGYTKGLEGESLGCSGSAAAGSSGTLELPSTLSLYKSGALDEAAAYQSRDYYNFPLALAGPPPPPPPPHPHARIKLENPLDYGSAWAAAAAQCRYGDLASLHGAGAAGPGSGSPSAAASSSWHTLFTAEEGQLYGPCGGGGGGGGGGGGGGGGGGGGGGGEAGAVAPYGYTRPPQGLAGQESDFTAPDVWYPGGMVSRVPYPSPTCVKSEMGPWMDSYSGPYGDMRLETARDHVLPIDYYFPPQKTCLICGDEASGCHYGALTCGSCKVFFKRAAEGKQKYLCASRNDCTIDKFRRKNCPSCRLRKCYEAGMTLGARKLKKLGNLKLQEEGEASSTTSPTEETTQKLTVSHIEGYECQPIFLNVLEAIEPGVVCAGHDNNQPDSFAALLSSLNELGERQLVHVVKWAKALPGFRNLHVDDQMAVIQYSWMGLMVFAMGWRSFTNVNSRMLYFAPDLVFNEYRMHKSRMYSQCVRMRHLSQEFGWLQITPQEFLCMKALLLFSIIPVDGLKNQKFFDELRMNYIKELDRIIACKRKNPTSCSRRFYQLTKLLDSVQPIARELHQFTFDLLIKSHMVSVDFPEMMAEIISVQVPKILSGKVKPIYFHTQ", "assay": "Displacement of [3H]DHT from human recombinant AR expressed in Sf9 cells"}, "Androgen receptor [2]": {"molecular_target": "T1, Androgen receptor", "assay": "Antagonist activity at human AR in MDA-MB453-MMTV-luci cells by functional assay", "type": "cell-based"}, "Progesterone receptor": {"molecular_target": "T2, Progesterone receptor (Homo sapiens, UniProt P06401)", "T2 sequence (P06401 whole entry)": "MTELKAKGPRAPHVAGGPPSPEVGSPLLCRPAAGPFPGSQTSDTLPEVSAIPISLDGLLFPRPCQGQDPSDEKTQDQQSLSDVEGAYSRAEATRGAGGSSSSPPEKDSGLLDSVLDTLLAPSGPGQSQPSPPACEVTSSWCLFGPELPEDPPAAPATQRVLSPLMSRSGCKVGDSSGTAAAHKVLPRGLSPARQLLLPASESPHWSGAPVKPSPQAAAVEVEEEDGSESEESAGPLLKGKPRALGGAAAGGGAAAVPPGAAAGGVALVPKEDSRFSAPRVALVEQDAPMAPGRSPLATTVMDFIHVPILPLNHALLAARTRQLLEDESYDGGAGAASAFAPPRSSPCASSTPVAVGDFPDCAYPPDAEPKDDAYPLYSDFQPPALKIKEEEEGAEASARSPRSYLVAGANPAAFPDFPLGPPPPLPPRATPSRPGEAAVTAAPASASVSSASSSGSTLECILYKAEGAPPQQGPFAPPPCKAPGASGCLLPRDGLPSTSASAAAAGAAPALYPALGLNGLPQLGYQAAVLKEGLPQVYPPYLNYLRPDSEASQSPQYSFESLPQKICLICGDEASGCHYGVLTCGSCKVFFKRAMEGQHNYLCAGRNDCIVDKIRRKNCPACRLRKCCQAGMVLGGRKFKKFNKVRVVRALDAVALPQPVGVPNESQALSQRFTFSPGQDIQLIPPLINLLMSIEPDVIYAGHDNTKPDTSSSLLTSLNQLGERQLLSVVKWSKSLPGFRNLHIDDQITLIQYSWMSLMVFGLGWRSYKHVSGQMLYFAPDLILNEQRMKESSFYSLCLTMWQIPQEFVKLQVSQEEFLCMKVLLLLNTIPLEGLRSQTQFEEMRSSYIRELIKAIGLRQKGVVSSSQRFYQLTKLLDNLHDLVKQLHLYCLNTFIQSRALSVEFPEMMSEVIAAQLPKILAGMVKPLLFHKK", "assay": "Binding affinity at human PR"}, "Syrian golden hamster": {"tested_on": "Syrian golden hamster", "assay": "Reduction of wax ester in Golden Syrian hamster ear model relative to control", "type": "functional, Mesocricetus auratus", "design": "scale not given: the % may be the effect or the level left"}},
  "data": [
    {"smiles": "COCCOCCOc1ccccc1-c1ccc(C#N)c(C(F)(F)F)c1", "values": [
      {"measurement": "IC50", "setting": "Androgen receptor [1]", "result": 8140, "unit": "nM"}
    ]},
    {"smiles": "N#Cc1ccc(-c2c(O)cccc2O)cc1C(F)(F)F", "values": [
      {"measurement": "IC50", "setting": "Androgen receptor [1]", "result": 989, "unit": "nM"}
    ]},
    {"smiles": "N#Cc1ccc(-c2ccccc2Cl)cc1C(F)(F)F", "values": [
      {"measurement": "IC50", "setting": "Androgen receptor [1]", "result": 9.8, "unit": "nM"}
    ]},
    {"smiles": "COCCOc1ccccc1-c1ccc(C#N)c(C(F)(F)F)c1", "values": [
      {"measurement": "IC50", "setting": "Androgen receptor [1]", "result": 2230, "unit": "nM"}
    ]},
    {"smiles": "COC(=O)COc1ccccc1-c1ccc(C#N)c(C(F)(F)F)c1", "values": [
      {"measurement": "IC50", "setting": "Androgen receptor [1]", "result": 1310, "unit": "nM"}
    ]},
    {"smiles": "COc1cccc(OC)c1-c1ccc(C#N)c(C(F)(F)F)c1", "values": [
      {"measurement": "IC50", "setting": "Androgen receptor [1]", "result": 14.7, "unit": "nM"},
      {"measurement": "IC50", "setting": "Androgen receptor [2]", "result": 399, "unit": "nM"}
    ]},
    {"smiles": "N#Cc1ccc(-c2cccc(O)c2)cc1C(F)(F)F", "values": [
      {"measurement": "IC50", "setting": "Androgen receptor [1]", "result": 229, "unit": "nM"}
    ]},
    {"smiles": "COc1ccccc1-c1ccc(C#N)c(C(F)(F)F)c1", "values": [
      {"measurement": "IC50", "setting": "Androgen receptor [1]", "result": 37, "unit": "nM"},
      {"measurement": "IC50", "setting": "Androgen receptor [2]", "result": 20.1, "unit": "nM"},
      {"measurement": "IC50", "setting": "Progesterone receptor", "result": 3250, "unit": "nM"}
    ]},
    {"smiles": "Cc1cccc(-c2ccc(C#N)c(C(F)(F)F)c2)c1", "values": [
      {"measurement": "IC50", "setting": "Androgen receptor [1]", "result": 1900, "unit": "nM"}
    ]},
    {"smiles": "N#Cc1ccc(-c2ccccc2O)cc1C(F)(F)F", "values": [
      {"measurement": "IC50", "setting": "Androgen receptor [1]", "result": 39.9, "unit": "nM"},
      {"measurement": "IC50", "setting": "Androgen receptor [2]", "result": 0.02, "unit": "nM"},
      {"measurement": "IC50", "setting": "Progesterone receptor", "result": 4450, "unit": "nM"},
      {"measurement": "Activity", "setting": "Syrian golden hamster", "result": 86, "unit": "%"}
    ]},
    {"smiles": "N#Cc1ccc(-c2ccccc2C(F)(F)F)cc1C(F)(F)F", "values": [
      {"measurement": "IC50", "setting": "Androgen receptor [1]", "result": 10.9, "unit": "nM"},
      {"measurement": "IC50", "setting": "Androgen receptor [2]", "result": "> 1", "unit": "nM"}
    ]},
    {"smiles": "Cc1ccccc1-c1ccc(C#N)c(C(F)(F)F)c1", "values": [
      {"measurement": "IC50", "setting": "Androgen receptor [1]", "result": 146, "unit": "nM"},
      {"measurement": "IC50", "setting": "Androgen receptor [2]", "result": "> 1000", "unit": "nM"}
    ]},
    {"smiles": "N#Cc1ccc(-c2ccc(O)cc2)cc1C(F)(F)F", "values": [
      {"measurement": "IC50", "setting": "Androgen receptor [1]", "result": 61.2, "unit": "nM"},
      {"measurement": "IC50", "setting": "Androgen receptor [2]", "result": 11.9, "unit": "nM"},
      {"measurement": "IC50", "setting": "Progesterone receptor", "result": "> 10000", "unit": "nM"}
    ]},
    {"smiles": "COc1cccc(-c2ccc(C#N)c(C(F)(F)F)c2)c1", "values": [
      {"measurement": "IC50", "setting": "Androgen receptor [1]", "result": 955, "unit": "nM"},
      {"measurement": "IC50", "setting": "Androgen receptor [2]", "result": 140, "unit": "nM"},
      {"measurement": "IC50", "setting": "Progesterone receptor", "result": 9460, "unit": "nM"}
    ]},
    {"smiles": "N#Cc1ccc(-c2ccccc2OCC(=O)O)cc1C(F)(F)F", "values": [
      {"measurement": "IC50", "setting": "Androgen receptor [1]", "result": "> 10000", "unit": "nM"}
    ]},
    {"smiles": "Cc1ccc(-c2ccc(C#N)c(C(F)(F)F)c2)cc1", "values": [
      {"measurement": "IC50", "setting": "Androgen receptor [1]", "result": 200, "unit": "nM"},
      {"measurement": "IC50", "setting": "Androgen receptor [2]", "result": 843, "unit": "nM"}
    ]},
    {"smiles": "COc1ccc(-c2ccc(C#N)c(C(F)(F)F)c2)cc1", "values": [
      {"measurement": "IC50", "setting": "Androgen receptor [1]", "result": 56.7, "unit": "nM"},
      {"measurement": "IC50", "setting": "Androgen receptor [2]", "result": 0.8, "unit": "nM"},
      {"measurement": "IC50", "setting": "Progesterone receptor", "result": 5520, "unit": "nM"}
    ]},
    {"smiles": "N#Cc1ccc(-c2ccccc2OCCO)cc1C(F)(F)F", "values": [
      {"measurement": "IC50", "setting": "Androgen receptor [1]", "result": 1540, "unit": "nM"}
    ]},
    {"smiles": "CC1(C)C(=O)N(c2ccc(C#N)c(C(F)(F)F)c2)C(=O)N1CCCCO", "note": "[RU-58841]", "values": [
      {"measurement": "Activity", "setting": "Syrian golden hamster", "result": 95, "unit": "%"}
    ]}
  ]
}
